Measured values from patent EP0672419A1, “BLOOD PRESSURE REGULATOR” (Asahi Kasei Kogyo Kabushiki Kaisha, priority 1991, dated 1995).

Test system: adult mongrel dogs
Experiment: Phenylephrine-induced hypertension in four anesthetized dogs (Example 8)
Type: in vivo, dog
Details: after administ. of phenylephrine 10 min.; 10 µg/kg/min, before CGRP
Description: Example 6 was repeated by substantially almost same manner using four adult mongrel dogs, mean body weight 12.3±3.0 kg, applying same anesthetic condition. After setting up the experiment at more than 60 minutes passing and confirming to stabilize the depth of anesthesia and blood flow, phenylephrine (hypertensor) 10 µg/kg/min was administered.
Further after 10 minutes passed, the active ingredient, desalanyl-deamino-c-CGRP 10 µg/kg/hr was administered and at 10 min. and 20 min. after administration of the active ingredient, heart rate (HR) and mean a artery pressure (MAP) were measured.

With `CNC[C@H](O)c1cccc(O)c1` [phenylephrine] the “HR: Heart rate” value was 138.0±9.3 beat/min and the “MAP: Mean artery pressure” value was 159.0±6.2 mmHg.
